Data from PubChem BioAssay AID1963968 (Molecular Pharmacology Branch, DTP, NCI, 2024).

Tested on: 945468-187-T-J3-PDC spheroids with HUVEC/MSC, viability
Experiment: Anticancer human tumor 945468-187-T-J3-PDC patient-derived rectal carcinoma cell line growth inhibition [PI3K]
Conditions: for IC50: curve of first compound; for viability, T/C: stronger effect = lower value; active means viability on the fitted dose curve at most 10% of control; inactive means the rest
Method in brief: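 Viability of mixed-cell spheroids was determined after exposure to pairwise combinations, one partner being inavolisib, alpelisib, duvelisib or copanlisib. Highest tested concentration matched clinical Cmax where known and 10 microM where not, descending in half-log steps.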

[1] = second compound 0.0316 µM, first compound 0.0316 µM
[2] = second compound 0.0316 µM, first compound 0.1 µM
[3] = second compound 0.0316 µM, first compound 0.316 µM
[4] = second compound 0.0316 µM, first compound 1 µM
[5] = second compound 0.0316 µM, first compound 3.16 µM
[6] = second compound 0.0316 µM, first compound 10 µM
[7] = second compound 0.1 µM, first compound 0.0316 µM
[8] = second compound 0.1 µM, first compound 0.1 µM
[9] = second compound 0.1 µM, first compound 0.316 µM
[10] = second compound 0.1 µM, first compound 1 µM
[11] = second compound 0.1 µM, first compound 3.16 µM
[12] = second compound 0.1 µM, first compound 10 µM
[13] = second compound 0.316 µM, first compound 0.0316 µM
[14] = second compound 0.316 µM, first compound 0.1 µM
[15] = second compound 0.316 µM, first compound 0.316 µM
[16] = second compound 0.316 µM, first compound 1 µM
[17] = second compound 0.316 µM, first compound 3.16 µM
[18] = second compound 0.316 µM, first compound 10 µM
[19] = second compound 1 µM, first compound 0.0316 µM
[20] = second compound 1 µM, first compound 0.1 µM
[21] = second compound 1 µM, first compound 0.316 µM
[22] = second compound 1 µM, first compound 1 µM
[23] = second compound 1 µM, first compound 3.16 µM
[24] = second compound 1 µM, first compound 10 µM
[25] = second compound 0.00316 µM, first compound 0.0316 µM
[26] = second compound 0.00316 µM, first compound 0.1 µM
[27] = second compound 0.00316 µM, first compound 0.316 µM
[28] = second compound 0.00316 µM, first compound 1 µM
[29] = second compound 0.00316 µM, first compound 3.16 µM
[30] = second compound 0.00316 µM, first compound 10 µM
[31] = second compound 0.01 µM, first compound 0.0316 µM
[32] = second compound 0.01 µM, first compound 0.1 µM
[33] = second compound 0.01 µM, first compound 0.316 µM
[34] = second compound 0.01 µM, first compound 1 µM
[35] = second compound 0.01 µM, first compound 3.16 µM
[36] = second compound 0.01 µM, first compound 10 µM
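Further: spheroids exposed to agents for 7 days before viability read.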
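Wherever viability, T/C is given: 100% = DMSO vehicle control viability.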

C#Cc1c(F)ccc2cc(O)cc(-c3ncc4c(N5CC6CCC(C5)N6)nc(OCC56CCCN5CC(F)C6)nc4c3F)c12 (stereo not drawn) + CC(Nc1ncnc2nc[nH]c12)c1cc2cccc(Cl)c2c(=O)n1-c1ccccc1
inactive: viability, T/C [1] 91.2% | viability, T/C [2] 93% | viability, T/C [3] 103% | viability, T/C [4] 110% | viability, T/C [5] 113% | viability, T/C [6] 101% | viability, T/C [7] 101% | viability, T/C [8] 105% | viability, T/C [9] 99.8% | viability, T/C [10] 103% | viability, T/C [11] 115% | viability, T/C [12] 101% | viability, T/C [13] 100% | viability, T/C [14] 97.4% | viability, T/C [15] 103% | viability, T/C [16] 107% | viability, T/C [17] 117% | viability, T/C [18] 104% | viability, T/C [19] 100% | viability, T/C [20] 95.2% | viability, T/C [21] 96.8% | viability, T/C [22] 111% | viability, T/C [23] 111% | viability, T/C [24] 97.9% | viability, T/C (second compound 3.16 µM, first compound 0.0316 µM) 102% | viability, T/C (second compound 3.16 µM, first compound 0.1 µM) 105% | viability, T/C (second compound 3.16 µM, first compound 0.316 µM) 106% | viability, T/C (second compound 3.16 µM, first compound 1 µM) 99.8% | viability, T/C (second compound 3.16 µM, first compound 3.16 µM) 110% | viability, T/C (second compound 3.16 µM, first compound 10 µM) 101% | viability, T/C (second compound 10 µM, first compound 0.0316 µM) 100% | viability, T/C (second compound 10 µM, first compound 0.1 µM) 99.5% | viability, T/C (second compound 10 µM, first compound 0.316 µM) 111% | viability, T/C (second compound 10 µM, first compound 1 µM) 126% | viability, T/C (second compound 10 µM, first compound 3.16 µM) 121% | viability, T/C (second compound 10 µM, first compound 10 µM) 92.5%
> 10 µM: IC50 (second compound 0.0316 µM) | IC50 (second compound 0.1 µM) | IC50 (second compound 0.316 µM) | IC50 (second compound 1 µM) | IC50 (second compound 3.16 µM) | IC50 (second compound 10 µM)

Cn1cnc2c(F)c(Nc3ccc(Br)cc3Cl)c(C(=O)NOCCO)cc21 + CC(Nc1ncnc2nc[nH]c12)c1cc2cccc(Cl)c2c(=O)n1-c1ccccc1
> 3 µM: IC50 (second compound 0.0316 µM) | IC50 (second compound 0.1 µM) | IC50 (second compound 0.316 µM) | IC50 (second compound 1 µM) | IC50 (second compound 3.16 µM) | IC50 (second compound 10 µM)
inactive: viability, T/C (second compound 0.0316 µM, first compound 0.00949 µM) 106% | viability, T/C (second compound 0.0316 µM, first compound 0.03 µM) 103% | viability, T/C (second compound 0.0316 µM, first compound 0.0949 µM) 116% | viability, T/C (second compound 0.0316 µM, first compound 0.3 µM) 115% | viability, T/C (second compound 0.0316 µM, first compound 0.949 µM) 104% | viability, T/C (second compound 0.0316 µM, first compound 3 µM) 87.2% | viability, T/C (second compound 0.1 µM, first compound 0.00949 µM) 96% | viability, T/C (second compound 0.1 µM, first compound 0.03 µM) 98% | viability, T/C (second compound 0.1 µM, first compound 0.0949 µM) 109% | viability, T/C (second compound 0.1 µM, first compound 0.3 µM) 104% | viability, T/C (second compound 0.1 µM, first compound 0.949 µM) 101% | viability, T/C (second compound 0.1 µM, first compound 3 µM) 95.6% | viability, T/C (second compound 0.316 µM, first compound 0.00949 µM) 100% | viability, T/C (second compound 0.316 µM, first compound 0.03 µM) 104% | viability, T/C (second compound 0.316 µM, first compound 0.0949 µM) 108% | viability, T/C (second compound 0.316 µM, first compound 0.3 µM) 111% | viability, T/C (second compound 0.316 µM, first compound 0.949 µM) 112% | viability, T/C (second compound 0.316 µM, first compound 3 µM) 89% | viability, T/C (second compound 1 µM, first compound 0.00949 µM) 97.2% | viability, T/C (second compound 1 µM, first compound 0.03 µM) 99.6% | viability, T/C (second compound 1 µM, first compound 0.0949 µM) 110% | viability, T/C (second compound 1 µM, first compound 0.3 µM) 103% | viability, T/C (second compound 1 µM, first compound 0.949 µM) 106% | viability, T/C (second compound 1 µM, first compound 3 µM) 84.1% | viability, T/C (second compound 3.16 µM, first compound 0.00949 µM) 94.5% | viability, T/C (second compound 3.16 µM, first compound 0.03 µM) 119% | viability, T/C (second compound 3.16 µM, first compound 0.0949 µM) 105% | viability, T/C (second compound 3.16 µM, first compound 0.3 µM) 107% | viability, T/C (second compound 3.16 µM, first compound 0.949 µM) 102% | viability, T/C (second compound 3.16 µM, first compound 3 µM) 73.8% | viability, T/C (second compound 10 µM, first compound 0.00949 µM) 101% | viability, T/C (second compound 10 µM, first compound 0.03 µM) 98.8% | viability, T/C (second compound 10 µM, first compound 0.0949 µM) 97.2% | viability, T/C (second compound 10 µM, first compound 0.3 µM) 98.4% | viability, T/C (second compound 10 µM, first compound 0.949 µM) 93.7% | viability, T/C (second compound 10 µM, first compound 3 µM) 60.6%

CC1(C)CCC(Nc2ncc(C(F)(F)F)c(-c3c[nH]c4c(P(C)(C)=O)c(C#N)ccc34)n2)CN1 (stereo not drawn) + COc1c(OCCCN2CCOCC2)ccc2c3n(c(=NC(=O)c4cnc(N)nc4)nc12)CCN3
active: viability, T/C [30] 6.58% | viability, T/C [36] 5.22% | viability, T/C [6] 5.62% | viability, T/C [12] 2.67% | viability, T/C [23] 11.4% | viability, T/C [24] 0.98%
1.25 µM: IC50 (second compound 0.0316 µM)
< 0.0316 µM: IC50 (second compound 0.1 µM) | IC50 (second compound 0.316 µM) | IC50 (second compound 1 µM)
inactive: viability, T/C [25] 55.6% | viability, T/C [26] 40.7% | viability, T/C [27] 39% | viability, T/C [28] 49.6% | viability, T/C [29] 78.7% | viability, T/C [31] 45.7% | viability, T/C [32] 48.1% | viability, T/C [33] 41.9% | viability, T/C [34] 56% | viability, T/C [35] 55.7% | viability, T/C [1] 56.8% | viability, T/C [2] 47.4% | viability, T/C [3] 52% | viability, T/C [4] 48.1% | viability, T/C [5] 46.9% | viability, T/C [7] 40.4% | viability, T/C [8] 39.2% | viability, T/C [9] 34.3% | viability, T/C [10] 35.4% | viability, T/C [11] 40.3% | viability, T/C [13] 27.9% | viability, T/C [14] 26.6% | viability, T/C [15] 23.2% | viability, T/C [16] 20.5% | viability, T/C [17] 20.8% | viability, T/C [18] 5.77% | viability, T/C [19] 15.7% | viability, T/C [20] 17.2% | viability, T/C [21] 17.5% | viability, T/C [22] 14.6%
0.0316 µM: IC50 (second compound 0.01 µM)
3.35 µM: IC50 (second compound 0.00316 µM)

C[C@@H](NC(=O)c1ncnc(N)c1Cl)c1ncc(C(=O)Nc2cc(C(F)(F)F)c(Cl)cn2)s1 + CC(Nc1ccc2c(c1)OCCn1cc(N3C(=O)OCC3C(F)F)nc1-2)C(N)=O
> 10 µM: IC50 (second compound 0.00316 µM) | IC50 (second compound 0.01 µM) | IC50 (second compound 0.0316 µM) | IC50 (second compound 0.1 µM) | IC50 (second compound 0.316 µM) | IC50 (second compound 1 µM)
inactive: viability, T/C [25] 97.2% | viability, T/C [26] 97.5% | viability, T/C [27] 116% | viability, T/C [28] 91.5% | viability, T/C [29] 111% | viability, T/C [30] 92% | viability, T/C [31] 94.7% | viability, T/C [32] 110% | viability, T/C [33] 101% | viability, T/C [34] 88.4% | viability, T/C [35] 90.8% | viability, T/C [36] 98.4% | viability, T/C [1] 94.4% | viability, T/C [2] 89.3% | viability, T/C [3] 94.4% | viability, T/C [4] 95.1% | viability, T/C [5] 103% | viability, T/C [6] 94.3% | viability, T/C [7] 91.2% | viability, T/C [8] 102% | viability, T/C [9] 101% | viability, T/C [10] 100% | viability, T/C [11] 96.7% | viability, T/C [12] 95.8% | viability, T/C [13] 109% | viability, T/C [14] 112% | viability, T/C [15] 92.7% | viability, T/C [16] 92.7% | viability, T/C [17] 88.8% | viability, T/C [18] 96.3% | viability, T/C [19] 67.5% | viability, T/C [20] 56.1% | viability, T/C [21] 63.7% | viability, T/C [22] 56.8% | viability, T/C [23] 65.1% | viability, T/C [24] 62.4%
